According to patent publication US4855497A, “Novel diamine derivatives” (Chugai Seiyaku Kabushiki Kaisha, priority 1985, dated 1989):

What was measured:
[1] = tested on: Aconitine-Induced Arrythmia; experiment: Activity against aconitine-induced arrythmia in rats; assay type: in vivo, Sprague-Dowley male rats; conditions: aconitine 1 μg/kg/min; for Time required for ventricular extrasystole to occur: untreated 14.3 min; for Time required for ventricular fibrillation to occur: untreated 35.3 min
Procedure: Activity Against Aconitine-Induced Arrythmia in Rats
Using Sprague-Dowley male rats (9-10 wk. old, two animals per group) weighing about 350 g on average, the following experiment was conducted substantially in compliance with the method of Vargftig et al. (Europ. J. Pharmacol., 6, 49, 1969).
The animals were anesthetized by intraperitoneal administration of 1 g/kg of urethane. A polyethylene cannula was inserted into both the femoral artery and vein of each animal; the drug was administered through the femoral vein while the blood pressure was measured at the femoral artery.
While the aconitine solution was continuously infused into the vein at a rate of 1 μg/kg/min, a selected compound was administered intravenously at 5-minute intervals. In order to prevent the aconitine-induced dyspnea from interfering with the experimental results, 0.2 mg/kg of d-tubocurarine was administered intravenously to each animal, which then was subjected to artificial respiration through a cannula inserted into the trachea (80 breathings/min, with 4 ml of air supplied by a single ventillation).
Identification of arrythmia was made by the ECG in the second induction period; the appearance of a QRS complex with sharply downward deflections was used as an indication of ventricular arrythmia and observation was continued until ventricular fibrillation appeared. The results are shown in Table 3 in terms of the times required for ventricular extrasystole and ventricular fibrillation to occur.

Acetylcholine = experiment: Activity against acetylcholine (I): inhibition of acetylcholine-induced contraction of isolated ilea; set-up: species or system SD/Slc male rats; conditions: 10^-4 M; 10^-6 M acetylcholine; isolated rat ilea
Procedure: Activity Against Acetylcholine (I)
SD/Slc male rats (10-mo. old, four animals per group) were clubbed dead and their ilea were immediately extracted. The ilea were suspended under a load of 1 g in a Krebs-Henseleit solution oxygenated with a mixture of 95% O2 +5% CO2 at 27° C., and the ileal reaction was measured isotonically.
The anti-cholinergic activity of each of the compounds tested was determined in terms of percent inhibition against the contractive reaction of 10^-6 M of acetylcholine (causing 60-70% of the maximum contractive reaction of acetylcholine).

[2] = tested on: Ouabain-Induced Arrythmia; experiment: Activity against ouabain-induced arrythmia in guinea pigs; assay type: in vivo, Hartly male guinea pigs; conditions: ouabain 5 μg/kg/min; for Time required for ventricular extrasystole to occur: untreated 28.5 min; for Time required for ventricular fibrillation to occur: untreated 35.1 min; for Time required for cardiac arrest to occur: untreated 41.2 min
Procedure: Activity Against Ouabain-Induced Arrythmia in Guinea Pigs
Hartly male guinea pigs (5-6 wk. old, two animals per group) weighing about 350 g on average were anesthetized by intraperitoneal administration of 1.2 g/kg of urethane. A polyethylene cannula was inserted into both the cervical vein and the carotid artery; the drug was administered through the cervical vein while the blood pressure was measured at the carotid artery. A selected test compound was administered 5 minutes before the sustained intravenous infusion of the ouabain solution (5 μg/kg/min) as described in J. Pharmacol. Exp. Ther., 136, 227, 1962). Identification of arrythmia was made by the ECG in the second induction period; the appearance of a QRS complex with sharply downward deflictions was used as an indication of ventricular arrythmia and observation was continued until ventricular fibrillation and cardiac arrest appeared. The results are shown in Table 4 in terms of the times required for ventricular extrasystole, ventricular fibrillation and cardiac arrest to occur.

Blood Sugar Level = experiment: Effect on blood sugar level; assay type: in vivo, SD/Slc male rats; conditions: starved overnight
Procedure: Effect on Blood Sugar Level
After starving SD/Slc male rats (body weight, 250 g; 6 animals per group) overnight, 20-μl blood samples were drawn from the tail vein of each rat while it was not anesthetized. Records were taken of the sugar level in each blood sample. A selected compound of the present invention was suspended in 3% gum arabic and the suspension was administered perorally to each rat in an amount of 50 or 200 mg/kg. At 2, 4 and 6 hours of the administration, blood samples were taken and their blood sugar levels were measured. Measurements of blood sugar levels were conducted with a New Blood Sugar Test (Boehringer, Mannheim).
To the control group, a 3% gum arabic solution was administered, and diisopyramide was administered as a comparative drug.

[3] = tested on: Chloroform-Induced Arrythmia; experiment: Activity against chloroform-induced arrythmia in rats (prevention of ventricular fibrillation); assay type: in vivo, Sprague-Dowley male rats; conditions: 30 min prior to chloroform; for responders at 1 mg/kg: Rattus norvegicus, po, 0.5 h, not starved rats, 1 mg/kg P.O., read-out: Percent prevention (ventricular fibrillation), not starved
Procedure: Activity Aganist Chloroform-Induced Arrythmia in Rats
The following procedures were substantially in accordance with the method of Erker and Baker (Arch. Int. Pharmacodyn., 243, 97-102, 1980). Aminophylline (20 mg/kg) was injected intramuscularly into two groups of Sprague-Dowley male rats (3-4 wk. old, 7 animals per group) weighing about 100 g on average, one group having been starved for 24 hours and the other group not starved. Thirty minutes after the injection, the animals were put into a 4,000-ml glass beaker with a lid that contained gauze impregnated with […] of chloroform. Fifty minutes later, the animals were recovered from the beaker and their chests were incised to check their hearts for the presence of ventricular fibrillation. The features of their cardiac rhythm were examined by the electrocardiogram. When no distinct fibrillation was observed, the heart was touched with tweezers. The heart was identified as fibrillar when rapid irregular twitchings occured on the surface of ventricles and continued for at least 5 seconds after chest incision or mechanical stimulation.
Selected compounds suspended in 3% gum arabic were administered in various doses to the rats either intraperitoneally (i.P.) or perorally (P.O.) 30 minutes prior to treatment with chloroform. The percent prevention of ventricular fibrillation was determined for each rat. Only a 3% gum arabic solution was administered to the control group.

[4] = tested on: sleeping induced by hexobarbital; experiment: Effect on the time of sleeping induced by hexobarbital; assay type: in vivo, ddY/Slc male rats; conditions: 5 mg/kg perorally; ** p < 0.05 vs untreated (53.9 ± 2.7)
Procedure: Effect on the Time of Sleeping Induced by Hexobarbital
A selected compound of the present invention was administered perorally to ddY/Slc male rats (5-6 wk. old, 10 animals per group) in an amount of 50 or 100 mg/kg. One hour later, […] of hexobarbital was administered intraperitoneally to each animal, thereby causing the loss of orthogonal reflex. The time required for the recovery of orthogonal reflex was measured for each animal.
As comparative drugs, 50 or 100 mg/kg of disopyramide and 5 mg/kg of diazepam were administered perorally.

[5] = peroral, clinical; cited from earlier work

Structure (SMILES)	Time required for ventricular extrasystole to occur ([1]; 5 mg/kg intravenously) [min]	Time required for ventricular fibrillation to occur ([1]; 5 mg/kg intravenously) [min]	Percent inhibition (contractive reaction of acetylcholine) (Acetylcholine) [%]	Time required for ventricular extrasystole to occur ([2]; 10 mg/kg via cervical vein) [min]	Time required for ventricular fibrillation to occur ([2]; 10 mg/kg via cervical vein) [min]	Time required for cardiac arrest to occur ([2]; 10 mg/kg via cervical vein) [min]	responders at 1 mg/kg [3] [%]	other results
Cc1cccc(C)c1NC(=O)CCNCCCN(C)C [Compound No. 2, 3-(dimethylaminopropylamino)-2',6'-dimethylpropionanilide]	25.5	36.5	7	38.1	43.4	48.7	71.4	Time required for ventricular extrasystole to occur ([2]; 5 mg/kg via cervical vein): 31.0 min; Time required for ventricular fibrillation to occur ([2]; 5 mg/kg via cervical vein): 38.5 min; Time required for cardiac arrest to occur ([2]; 5 mg/kg via cervical vein): 39.5 min; Blood sugar level, 0 hr (mean ± S.E.) (Blood Sugar Level; 50 mg/kg perorally): 77.6 ± 5.5 mg/dL; Blood sugar level, 2 hr (mean ± S.E.) (Blood Sugar Level; 50 mg/kg perorally): 61.3 ± 2.2 mg/dL; Blood sugar level, 4 hr (mean ± S.E.) (Blood Sugar Level; 50 mg/kg perorally): 63.7 ± 4.5 mg/dL; Blood sugar level, 6 hr (mean ± S.E.) (Blood Sugar Level; 50 mg/kg perorally): 64.4 ± 4.4 mg/dL; Blood sugar level, 0 hr (mean ± S.E.) (Blood Sugar Level; 200 mg/kg perorally): 76.1 ± 2.4 mg/dL; Blood sugar level, 2 hr (mean ± S.E.) (Blood Sugar Level; 200 mg/kg perorally): 52.9 ± 3.2 mg/dL; Blood sugar level, 4 hr (mean ± S.E.) (Blood Sugar Level; 200 mg/kg perorally): 58.3 ± 2.6 mg/dL; Blood sugar level, 6 hr (mean ± S.E.) (Blood Sugar Level; 200 mg/kg perorally): 56.8 ± 1.7 mg/dL
CCN(CC)CCCNCCC(=O)Nc1c(C)cccc1C [Compound No. 3, 3-(diethylaminopropylamino)-2',6'-dimethylpropionanilide]	27.4	> 120.0	28	34.4	42.2	48.4	100	
Cc1cccc(C)c1NC(=O)CCNCCNC(C)C [Compound No. 4, 3-(isopropylaminoethylamino)-2', 6'-dimethylpropionanilide]			0	42.5	59.5	66.5	100	Time required for ventricular extrasystole to occur ([1]; 10 mg/kg intravenously): 34.4 min; Time required for ventricular fibrillation to occur ([1]; 10 mg/kg intravenously): > 120.0 min; Blood sugar level, 0 hr (mean ± S.E.) (Blood Sugar Level; 50 mg/kg perorally): 81.2 ± 2.4 mg/dL; Blood sugar level, 2 hr (mean ± S.E.) (Blood Sugar Level; 50 mg/kg perorally): 60.3 ± 3.4 mg/dL; Blood sugar level, 4 hr (mean ± S.E.) (Blood Sugar Level; 50 mg/kg perorally): 57.5 ± 1.6 mg/dL; Blood sugar level, 6 hr (mean ± S.E.) (Blood Sugar Level; 50 mg/kg perorally): 61.5 ± 0.6 mg/dL; Blood sugar level, 0 hr (mean ± S.E.) (Blood Sugar Level; 200 mg/kg perorally): 69.1 ± 2.9 mg/dL; Blood sugar level, 2 hr (mean ± S.E.) (Blood Sugar Level; 200 mg/kg perorally): 57.4 ± 3.0 mg/dL; Blood sugar level, 4 hr (mean ± S.E.) (Blood Sugar Level; 200 mg/kg perorally): 58.5 ± 2.1 mg/dL; Blood sugar level, 6 hr (mean ± S.E.) (Blood Sugar Level; 200 mg/kg perorally): 59.0 ± 1.8 mg/dL
CN1C(=O)CN=C(c2ccccc2)c2cc(Cl)ccc21 [Diazepam]								Time of sleeping (mean ± S.E.) [4]: 136.4 ± 5.8 min
CCN(CC)CC(=O)Nc1c(C)cccc1C [Lidocaine, reference compound]								Percent prevention (ventricular fibrillation), starved ([3]; starved rats, 20 mg/kg i.P.): 77.1%; drug level in blood [5]: too low to attain the desired effectiveness
Cc1cccc(C)c1NC(=O)CCNCCCN(C(C)C)C(C)C [compound 11]	26.2	73.8	0	35.3	45.3	52.4	85.7	Time required for ventricular extrasystole to occur ([1]; 10 mg/kg intravenously): 44.2 min; Time required for ventricular fibrillation to occur ([1]; 10 mg/kg intravenously): > 120.0 min; Blood sugar level, 0 hr (mean ± S.E.) (Blood Sugar Level; 50 mg/kg perorally): 71.3 ± 2.9 mg/dL; Blood sugar level, 2 hr (mean ± S.E.) (Blood Sugar Level; 50 mg/kg perorally): 61.8 ± 3.1 mg/dL; Blood sugar level, 4 hr (mean ± S.E.) (Blood Sugar Level; 50 mg/kg perorally): 64.0 ± 2.2 mg/dL; Blood sugar level, 6 hr (mean ± S.E.) (Blood Sugar Level; 50 mg/kg perorally): 63.8 ± 1.5 mg/dL; Blood sugar level, 0 hr (mean ± S.E.) (Blood Sugar Level; 200 mg/kg perorally): 62.3 ± 2.7 mg/dL; Blood sugar level, 2 hr (mean ± S.E.) (Blood Sugar Level; 200 mg/kg perorally): 52.0 ± 3.5 mg/dL; Blood sugar level, 4 hr (mean ± S.E.) (Blood Sugar Level; 200 mg/kg perorally): 53.8 ± 3.8 mg/dL; Blood sugar level, 6 hr (mean ± S.E.) (Blood Sugar Level; 200 mg/kg perorally): 63.6 ± 1.5 mg/dL
Cc1cccc(C)c1NC(=O)CCNCCCN(CC(C)C)CC(C)C [compound 12]	26.2	30.2		45.4	48.2	56.6	85.7	
Cc1cccc(C)c1NC(=O)CCNCCCNC1CCCCCCC1 [compound 14]							85.7	
Cc1cccc(C)c1NC(=O)CCCNCCCN(CC(C)C)CC(C)C [compound 18]			0					
CCc1cccc(CC)c1NC(=O)CCNCCCN(CC(C)C)CC(C)C [compound 31]	26.1	> 90.0					100	Time required for ventricular extrasystole to occur ([2]; 5 mg/kg via cervical vein): 34.1 min; Time required for ventricular fibrillation to occur ([2]; 5 mg/kg via cervical vein): 51.0 min; Time required for cardiac arrest to occur ([2]; 5 mg/kg via cervical vein): 57.8 min
CCc1cccc(CC)c1NC(=O)CCNCCCCCN(CC(C)C)CC(C)C [compound 35]	24.5	84.5	9				100	Time required for ventricular extrasystole to occur ([2]; 5 mg/kg via cervical vein): 45.4 min; Time required for ventricular fibrillation to occur ([2]; 5 mg/kg via cervical vein): 48.4 min; Time required for cardiac arrest to occur ([2]; 5 mg/kg via cervical vein): 56.2 min
